{"source": "patent US20220110846A1", "about": "“EMOLLIENT AND CLEANSING AGENT” (Oleon NV, priority 2020, published 2022)", "key": {"[1]": {"system": "Candida albicans, DSM 1386", "assay": "Minimum inhibitory concentration (ISO 20776-1:2019)", "assay_type": "cell-based", "method": "(§1) Preservatives used were phenoxyethanol and benzyl alcohol.\n(§2) Micro-organisms used were: • Staphylococcus aureus, DSM 799; • Candida albicans, DSM 1386.\n(§3) Two samples were prepared comprising each 90 wt % of combination 1 and 10 wt % of respectively phenoxyethanol and benzyl alcohol.\n(§4) Two comparative samples comprising 100 wt % of respectively phenoxyethanol and benzyl alcohol were also prepared.\n(§5) To evaluate the boosting antimicrobial property of the combination according to the invention, the minimum inhibitory concentration (MIC) was determined according to a method based on standard ISO 20776-1:2019."}, "[2]": {"system": "Staphylococcus aureus, DSM 799", "assay": "Minimum inhibitory concentration (ISO 20776-1:2019)", "assay_type": "cell-based", "method": "as §1, §2, §3, §4, §5"}}}
{"compound": "OCc1ccccc1", "note": "[Benzyl alcohol, benzyl alcohol]", "values": [{"measurement": "MIC, Candida albicans", "setting": "[1]", "result": 0.30, "unit": "%"}, {"measurement": "MIC, Staphylococcus aureus", "setting": "[2]", "result": 0.40, "unit": "%"}]}
